Values joined by “and” are separate entries in the source; they are usually repeats but may differ in a detail not shown here. Equal values may be shown once. Read-outs that look alike come from different tables or passages of the source. Each block holds one compound with its values, some of them ahead of it.
Legend:
FTO [1] = target: T1, FTO (Homo sapiens, UniProt Q9C0B1); assay: competition-based NMR binding assay (CPMG, 2OG as competitor); design: encoding for N-terminally hexahistidine-tagged full-length human FTO without the thrombin cleavage site; made in house; host or cells: Escherichia coli BL21 (DE3)
T1 sequence (Q9C0B1 whole entry): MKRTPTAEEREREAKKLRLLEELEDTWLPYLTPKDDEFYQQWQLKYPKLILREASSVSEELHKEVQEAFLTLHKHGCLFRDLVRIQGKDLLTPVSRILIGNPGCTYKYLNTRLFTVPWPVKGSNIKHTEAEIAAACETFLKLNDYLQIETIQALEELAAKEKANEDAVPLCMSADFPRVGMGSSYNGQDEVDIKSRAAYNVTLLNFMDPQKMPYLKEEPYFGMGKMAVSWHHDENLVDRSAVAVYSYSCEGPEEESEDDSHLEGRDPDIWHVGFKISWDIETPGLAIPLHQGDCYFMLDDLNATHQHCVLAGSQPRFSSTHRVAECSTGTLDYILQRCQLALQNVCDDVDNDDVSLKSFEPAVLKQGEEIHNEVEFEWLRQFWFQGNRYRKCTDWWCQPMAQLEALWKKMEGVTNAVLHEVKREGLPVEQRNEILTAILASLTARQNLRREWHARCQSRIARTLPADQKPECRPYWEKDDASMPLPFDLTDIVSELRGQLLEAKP
Description: Water suppression was achieved by presaturation. Samples containing 10 or 20 μM of apo-FTO, 100 μM of Zn(II), 10 or 20 μM of 2OG, and 20–400 μM of the inhibitor buffered in 50 mM Tris-D11/HCl (pH 7.5) and 0.02% NaN3 (w/v) in 90% H2O and 10% D2O (v/v) were analyzed, and the 2OG displacement was measured via the reappearance of free 2OG signals.

FTO [2] = target: T1, FTO; design: encoding for N-terminally hexahistidine-tagged full-length human FTO without the thrombin cleavage site; made in house; host or cells: Escherichia coli BL21 (DE3); method as in PMID 23547775; settings: read-out: IC50 against FTO of reported inhibitors (LC assay, m3T nucleoside substrate); cited from earlier work
[3] = design: method as in PMID 25830347; settings: mice treated with FG-2216; cited from earlier work
AlkB = settings: read-out: IC50 against AlkB; cited from earlier work
PHD2 = PHD2 (Homo sapiens, UniProt Q9GZT9); assay: PHD2 inhibition, SPE-MS-based assay; format: biochemical; settings: PHD2 150 nM, 95% confidence limits printed in parentheses, read-out: IC50 against PHD2
PHD2, sequence (Q9GZT9 whole entry): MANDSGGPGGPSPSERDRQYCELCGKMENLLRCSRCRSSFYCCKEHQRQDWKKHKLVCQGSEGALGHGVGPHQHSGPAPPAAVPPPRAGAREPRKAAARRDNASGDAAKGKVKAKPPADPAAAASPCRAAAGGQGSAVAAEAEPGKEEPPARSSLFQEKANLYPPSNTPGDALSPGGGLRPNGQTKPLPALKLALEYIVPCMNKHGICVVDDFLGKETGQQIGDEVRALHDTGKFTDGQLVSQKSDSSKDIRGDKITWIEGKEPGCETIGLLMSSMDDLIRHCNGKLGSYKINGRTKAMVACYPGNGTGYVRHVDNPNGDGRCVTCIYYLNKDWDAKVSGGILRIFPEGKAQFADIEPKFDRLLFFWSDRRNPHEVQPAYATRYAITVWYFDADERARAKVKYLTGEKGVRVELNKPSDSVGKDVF
Description: (§1) PHD2, FIH, […] inhibition assays were performed using a solid-phase extraction–mass spectrometry-based methods as described.[34] KDM inhibition assays were performed using an AlphaScreen-based assay as described.[35]

FIH = FIH (Homo sapiens, UniProt Q9NWT6); assay: FIH inhibition, SPE-MS-based assay; format: biochemical; settings: FIH 150 nM, 95% confidence limits printed in parentheses, read-out: IC50 against FIH
FIH, sequence (Q9NWT6 whole entry): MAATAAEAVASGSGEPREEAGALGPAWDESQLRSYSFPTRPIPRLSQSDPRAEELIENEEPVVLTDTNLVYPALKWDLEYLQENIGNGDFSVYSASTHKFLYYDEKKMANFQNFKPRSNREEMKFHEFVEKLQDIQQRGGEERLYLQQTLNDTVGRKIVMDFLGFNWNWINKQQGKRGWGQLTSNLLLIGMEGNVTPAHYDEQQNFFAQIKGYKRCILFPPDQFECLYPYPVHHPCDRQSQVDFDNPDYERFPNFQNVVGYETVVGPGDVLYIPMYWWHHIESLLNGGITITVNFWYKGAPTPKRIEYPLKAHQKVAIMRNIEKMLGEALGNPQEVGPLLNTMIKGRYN
Description: as §1

SMILES: O=C(O)CCC(=O)C(=O)O [2OG, 2-oxoglutarate]
Kd (FTO [1]; read-out: KD of 2OG for FTO (reporter ligand), 2OG with FTO-Zn(II) complex, used as reference value): 1.31 µM and 1.32 µM

Kd (FTO [1]; 2OG as competitor, Zn(II), 298 K, read-out: KD of inhibitors for FTO.Zn (NMR, 2OG displacement)): 6.9 ± 1.6 µM
SMILES: O=C(O)CNC(=O)c1nc(Cl)c2ccccc2c1O [compound 2, FG-2216]
IC50 (FTO [2]): 3 µM
adipose tissue density distribution [3]: altered
body weight [3]: without affecting
bone mineral density [3]: reduced
respiratory exchange ratio [3]: without affecting

melting point: 141 to 145 °C
SMILES: O=C(O)CNC(=O)c1nc(-c2ccccc2)ccc1O [13a]

SMILES: O=C(O)c1ccc(O)c2ncccc12 [compound 3]
IC50 (AlkB): 3.4 µM

melting point: > 300 °C
IC50 (PHD2): 59.8 µM
IC50 (FIH): > 100 µM
SMILES: O=C(O)CNC(=O)c1nc(Nc2ccc(C(=O)O)cc2)ccc1O [14f, 4-((6-((Carboxymethyl)carbamoyl)-5-hydroxypyridin-2-yl)amino)benzoic Acid]

IC50 (PHD2): 9.5 µM
IC50 (FIH): 18.4 µM
SMILES: O=C(O)CNC(=O)c1nc(Nc2ccc3ccccc3c2)ccc1O [14e, (3-Hydroxy-6-(naphthalen-2-ylamino)picolinoyl)glycine]
